IC50 data for 18 compounds are collected here from patent publication US10077271B2, “Methods and compositions for inhibiting the interaction of menin with MLL proteins” (Kura Oncology, Inc., priority 2015, dated 2018).

Where only a bound is given, the exact number is not on record here.

For the first assay, the target named is T1, Menin MLL 4-43 (Homo sapiens, UniProt O00255).
T1 construct: 6His
T1 sequence (O00255 1-610): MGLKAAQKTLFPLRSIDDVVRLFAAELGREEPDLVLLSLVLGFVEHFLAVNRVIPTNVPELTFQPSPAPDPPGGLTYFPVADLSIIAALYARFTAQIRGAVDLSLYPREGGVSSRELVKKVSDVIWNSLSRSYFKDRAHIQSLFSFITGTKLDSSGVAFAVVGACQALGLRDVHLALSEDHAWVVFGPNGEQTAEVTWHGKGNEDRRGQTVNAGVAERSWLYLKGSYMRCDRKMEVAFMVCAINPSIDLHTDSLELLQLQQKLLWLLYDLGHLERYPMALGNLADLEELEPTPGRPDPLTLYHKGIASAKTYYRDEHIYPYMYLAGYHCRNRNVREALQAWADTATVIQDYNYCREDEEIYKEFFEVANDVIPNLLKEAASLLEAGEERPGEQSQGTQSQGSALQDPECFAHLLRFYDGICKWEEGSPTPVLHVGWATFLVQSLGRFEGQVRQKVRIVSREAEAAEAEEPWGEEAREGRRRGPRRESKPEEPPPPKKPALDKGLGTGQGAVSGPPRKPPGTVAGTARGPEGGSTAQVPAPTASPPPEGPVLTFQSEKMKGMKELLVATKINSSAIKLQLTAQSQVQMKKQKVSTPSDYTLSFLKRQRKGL
Put plainly: Inhibition of the menin-MLL interaction (Menin MLL 4-43 IC50). Conditions: Formula II inhibitors of menin (Table 4G). The class given is binding. From the text: This example illustrates an assay effective in monitoring the binding of MLL to menin. […] A fluorescein-labeled peptide containing the high affinity menin binding motif found in MLL is produced according to Yokoyama et al. (Cell, 2005, 123(2): 207-218), herein incorporated by reference in its entirety. Binding of the labeled peptide (1.7 kDa) to the much larger menin (˜67 kDa) is accompanied by a significant change in the rotational correlation time of the fluorophore, resulting in a substantial increase in the fluorescence polarization and fluorescence anisotropy (excitation at 500 nm, emission at 525 nm).
A homogeneous time-resolve fluorescence (HTRF) assay is utilized as a secondary assay to confirm the results of the FP assay. In some embodiments, the HTRF assay is the primary assay and the FP assay is used as a secondary assay to confirm results. HTRF is based on the non-radiative energy transfer of the long-lived emission from the Europium cryptate (Eu^3+-cryptate) donor to the allophycocyanin (XL665) acceptor, combined with time-resolved detection. An Eu^3+-cryptate donor is conjugated with mouse anti-6His monoclonal antibody (which binds His-tagged menin) and XL665-acceptor is conjugate to streptavidin (which binds biotinylated MLL peptide). When these two fluorophores are brought together by the interaction of menin with the MLL peptide, energy transfer to the acceptor results in an increase in fluorescence emission at 665 nm and increased HTRF ratio (emission intensity at 665 nm/emission intensity at 620 nm). Inhibition of the menin-MLL interaction separates the donor from the acceptor, resulting in a decrease in emission at 665 nm and decreased HTRF ratio.
Take `Cc1c(CN2CCC(Nc3nc(N)nc4sc(CC(F)(F)F)cc34)CC2)ccc2[nH]c(C#N)cc12` [II-3]: the IC50 is at most 100 nM.
For the compound `Cc1c(CN2CCC(Nc3nc(N)nc4sc(CC(F)(F)F)cc34)CC2)ccc2c1cc(C#N)n2Cc1cn[nH]c1` [II-4], the IC50 is at most 100 nM.
Consider `Cc1c(CN2CCC(Nc3nc(Cl)nc4sc(CC(F)(F)F)cc34)CC2)ccc2[nH]c(C#N)cc12` [II-7], for which the IC50 is over 10000 nM.
Same read-out and setting: under `Cc1nc(NC2CCN(Cc3ccc4c(cc(C#N)n4Cc4cn[nH]c4)c3C)CC2)c2cc(CC(F)(F)F)sc2n1` [II-10] stands at most 100 nM; under `Cc1c(CN2CCC(Nc3nc(C(F)(F)F)nc4sc(CC(F)(F)F)cc34)CC2)ccc2[nH]c(C#N)cc12` [II-11], 100 to 1000 nM.
Same read-out and setting: under `Cc1c(CN2CCC(Nc3nc(C#N)nc4sc(CC(F)(F)F)cc34)CC2)ccc2c1cc(C#N)n2Cc1cn[nH]c1` [II-14] stands 1000 to 10000 nM; under `C=Cc1nc(NC2CCN(Cc3ccc4[nH]c(C#N)cc4c3C)CC2)c2cc(CC(F)(F)F)sc2n1` [II-15], 100 to 1000 nM; under `Cc1c(CN2CCC(Nc3nc(N)nc4sc(CC(F)(F)F)cc34)CC2)ccc2c1cc(C#N)n2Cc1cc[nH]n1` [II-16], 100 to 1000 nM.
In the case of `C#Cc1nc(NC2CCN(Cc3ccc4c(cc(C#N)n4Cc4cn[nH]c4)c3C)CC2)c2cc(CC(F)(F)F)sc2n1` [II-17], the IC50 is over 10000 nM.
Same read-out and setting: with `Cc1c(CN2CCC(Nc3nc(C(F)F)nc4sc(CC(F)(F)F)cc34)CC2)ccc2c1cc(C#N)n2Cc1cn[nH]c1` [II-18] the figure was over 10000 nM; with `C=CC(=O)Nc1ccc(CCC2C(C#N)=Cc3c2ccc(CN2CCC(Nc4nc(N)nc5sc(CC(F)(F)F)cc45)CC2)c3C)cn1` (stereo not drawn) [II-19], 100 to 1000 nM.

The same assay, now with this note: Formula III inhibitors of menin (Table 4h).
The compound `Cc1c(CN2CCC(Nc3ncnc4sc(CC(F)(F)F)cc34)C(F)(F)C2)ccc2[nH]c(C#N)cc12` (stereo not drawn) [III-3] came in with an IC50 of over 10000 nM.

The assay is the same for the next values; noted with them: Formula IV inhibitors of menin (Table 4i).
The compound `Cc1c(CN2CCC(Nc3ncnc4sc(CC(F)(F)F)cc34)CC2)cnc2[nH]c(C#N)cc12` [IV-2] displayed an IC50 of over 10000 nM.
`FC(F)(F)Cc1cc2c(NC3CCN(Cc4ccc5[nH]ncc5c4)CC3)ncnc2s1` [IV-8] had an IC50 of 100 to 1000 nM.
The same measure, in the same setting: with `Cc1c(CN2CCC(Nc3ncnc4sc(CC(F)(F)F)cc34)CC2)ccc2[nH]ncc12` [IV-9] the figure was 1000 to 10000 nM.

The assay is the same for the next values; noted with them: Formula V inhibitors of menin (Table 4J).
In turn, `Cc1c(CN2CCN(C(=O)c3ncnc4sc(CC(F)(F)F)cc34)CC2)ccc2[nH]c(C#N)cc12` [Compound V-3] yielded an IC50 of over 10000 nM.
`Cc1c(CN2CC(Nc3ncnc4sc(CC(F)(F)F)cc34)C2)ccc2[nH]c(C#N)cc12` [Compound V-13]: the concentration for half-maximal inhibition (IC50) was over 10000 nM.
In turn, `Cc1c(CN2CCC(Nc3ncnc4sc(CC(F)(F)F)cc34)C2)ccc2[nH]c(C#N)cc12` (stereo not drawn) [Compound V-15] gave an IC50 of over 10000 nM.

Broadly, the IC50 is the concentration that gives 50% inhibition. Low readings indicate inhibition by little substance, high ones a need for much substance.
